How the values were obtained:
[1] = system: various cancer cells lines; assay: Cytotoxicity assays in various cancer cell lines; assay type: cell-based
[2] = system: OVCAR-3; assay: NCI-60 screening, Ovarian Cancer; assay type: cell-based, human
Description: (§1) EC 330 was also tested using the NCI-60 Screening Methodology. The human tumor cell lines of the cancer screening panel are grown in RPMI 1640 medium containing 5% fetal bovine serum and 2 mM L-glutamine. For a typical screening experiment, cells are inoculated into 96 well microtiter plates in 100 μL at plating densities ranging from 5,000 to 40,000 cells/well depending on the doubling time of individual cell lines. After cell inoculation, the microtiter plates are incubated at 37° C., 5% CO2, 95% air and 100% relative humidity for 24 h prior to addition of experimental drugs. […]
(§2) Following drug addition, the plates are incubated for an additional 48 h at 37° C., 5% CO2, 95% air, and 100% relative humidity. […] Bound stain is subsequently solubilized with 10 mM trizma base, and the absorbance is read on an automated plate reader at a wavelength of 515 nm. […] Using the seven absorbance measurements [time zero, (Tz), control growth, (C), and test growth in the presence of drug at the five concentration levels (Ti)], the percentage growth is calculated at each of the drug concentrations levels. Percentage growth inhibition is calculated as: […]
(§3) Three dose response parameters are calculated for each experimental agent. […] The drug concentration resulting in total growth inhibition (TGI) is calculated from Ti=Tz. […]

[3] = system: A498; assay: NCI-60 screening, Renal Cancer; assay type: cell-based, human
[4] = system: human endometrial stromal cells (HESC); assay: Decidualization assay, phalloidin staining of actin cytoskeleton; assay type: cell-based
Description: Decidualization studies: The above compounds were investigated originally for the treatment of endometriosis. The compounds were tested in a decidualization assay using human endometrial stromal fibroblast (HESC) cells. In preparation for the possibility of embryonic attachment, the stromal cells in the endometrium undergo extensive waves of proliferation, remodeling, and terminal differentiation that transforms the endometrium into an endocrine gland, called decidua. This transformation is called decidualization and it is under the control by ovarian hormones.
The level of apoptosis increases from the proliferative phase through menstrual cycle and peaks at menses. […] However if the cells are subjected to conditions that induce decidualization, stromal cells will begin to differentiate instead of undergoing apoptosis.
Rationale of this assay is described above in mechanism of action studies section. Briefly, human stromal endometrial cells were plated in the presence and absence of progesterone and allow undergoing decidualization. The cells treated with test compounds of different concentrations and stained for actin cytocketal morphology using phalloidin staining and monitored under fluorescent microscope.

[5] = system: SN12C; assay: NCI-60 screening, Renal Cancer; assay type: cell-based, human
[6] = system: HOP-62; assay: NCI-60 screening, Non-Small Cell Lung Cancer; assay type: cell-based, human
[7] = system: 786-0; assay: NCI-60 screening, Renal Cancer; assay type: cell-based, human
[8] = system: MDA-MB-468; assay: NCI-60 screening, Breast Cancer; assay type: cell-based, human
Description: as §1, §2, §3

[9] = system: HL-60(TB); assay: NCI-60 screening, Leukemia; assay type: cell-based, human
[10] = system: EKVX; assay: NCI-60 screening, Non-Small Cell Lung Cancer; assay type: cell-based, human
[11] = system: HT29; assay: NCI-60 screening, Colon Cancer; assay type: cell-based, human
[12] = system: NCI-H332M; assay: NCI-60 screening, Non-Small Cell Lung Cancer; assay type: cell-based, human
[13] = system: OVCAR-5; assay: NCI-60 screening, Ovarian Cancer; assay type: cell-based, human
[14] = system: MDA-MB-435; assay: NCI-60 screening, Melanoma; assay type: cell-based, human
[15] = system: MOLT-4; assay: NCI-60 screening, Leukemia; assay type: cell-based, human
[16] = system: PC-3; assay: NCI-60 screening, Prostate Cancer; assay type: cell-based, human
[17] = system: ACHN; assay: NCI-60 screening, Renal Cancer; assay type: cell-based, human
[18] = system: HCC-2998; assay: NCI-60 screening, Colon Cancer; assay type: cell-based, human

C#CC(F)(F)[C@]1(O)CCC2C3CCC4=CC(=O)CCC4=C3C(c3ccc(C4CC4)cc3)C[C@@]21C (stereo partly drawn) [EC330, 17α-(1,1-difluoro-2-propyn-1-yl)-17β-hydroxy-11β-[4-p-(cyclopropyl)phenyl]estra-4,9-dien-3-one]
cytotoxicity (IC50's) in cytotoxicity assays [1]: low nanomolar | TGI (log10TGI) [2]: −6.85 | TGI (log10TGI) [3]: −6.01 | actin cytoskeletal disruption (phalloidin staining) [4]: cytoskeletal disruption | TGI (log10TGI) [5]: −4.58 | TGI (log10TGI) [6]: −6.79 | TGI (log10TGI) [7]: <−8.00 | TGI (log10TGI) [8]: −6.09 | TGI (log10TGI) [9]: <−8.00 | TGI (log10TGI) [10]: <−8.00 | TGI (log10TGI) [11]: −6.72 | TGI (log10TGI) [12]: >−4.00 | TGI (log10TGI) [13]: −5.25 | TGI (log10TGI) [14]: −5.03 | TGI (log10TGI) [15]: −5.30 | TGI (log10TGI) [16]: −5.53 | TGI (log10TGI) [17]: −5.09 | TGI (log10TGI) [18]: −4.37
